In patent US6585982B1, “Treatment of infertility” (NNA/S, priority 1999, dated 2003):

How the values were obtained:
metaphase II oocytes [1] = assay: FF-MAS as adjunct to a standard FSH based IVF treatment (GnRH antagonist Cetrorelix protocol, ICSI); assay type: cell-based, human
Procedure: (§1) The patient underwent down regulation with recombinant FSH with an average daily dose of 225 IU starting on Day 1 or 2 of the current cycle and used a GnRH antagonist, i.e., Cetrorelix (1 mg daily, subcutaneously, one shot), in the current cycle. At least 3 follicles of 17 mm or more were present at the time of administering hCG, i.e., Profasi (10.000 IU, one shot). Follicles were aspirated and metaphase II oocytes were cultured in oocyte culture system containing standard in vitro fertilization (IVF) media (IVF 20 (which is available from Scandinavian IVF Science AB, Gothenburg, Sweden)) supplemented with human serum albumin (0.8%) and FF-MAS (5 μM). All oocytes were cultured under normal conditions at 37° C. in the incubator. Each oocyte was cultured in one well in a four-chamber culture dish as culture media system. […] Preembryos were evaluated for cleavage stage and fragmentation/morphology at 1, 2 and 3 days post ICSI. […] The patient received an estrogen, i.e., Estrofem (6 mg/daily), and a progesterone, i.e. Utrogestan (600 mg/daily, micronized, vaginal suppository), to render the endometrium lining the patient uterus responsive and ready for allowing implantation of the transferred eggs. […]

metaphase II oocytes [2] = assay: FF-MAS as adjunct to a standard FSH based IVF treatment (GnRH analog Synarel down regulation, ICSI); assay type: cell-based, human
Description: as §1, with “regulation with an GnRH analog, i.e., Synarel (nasal spray, two puffs daily), for at least 14 days (starting in the luteal phase of the previous cycle or Day 1 or 2 in the follicular phase of the current cycle) and ovarian stimulation” for “regulation”, “225 IU.” for “225 IU starting on Day 1 or 2 of the current cycle and used a GnRH antagonist, i.e., Cetrorelix (1 mg daily, subcutaneously, one shot), in the current cycle.”, “hCG, i.e. Profase” for “hCG, i.e., Profasi”, “progesterone, i.e.,” for “progesterone, i.e.”, “suppository), daily” for “suppository),”

[3] = FF-MAS 5 μM, 0.8% HSA in IVF 20 medium, 4 hours before and 20 hours after ICSI

Measured: results of the IVF procedure compared with the known procedures

CC(C)=CCC[C@@H](C)[C@H]1CC=C2C3=C(CC[C@@]21C)[C@@]1(C)CC[C@H](O)C(C)(C)[C@@H]1CC3 [FF-MAS, 4,4-dimethyl-5α-cholesta-8,14,24-triene-3β-ol]
better results: metaphase II oocytes [1]; [3] | metaphase II oocytes [1]; FF-MAS 20 μM, otherwise procedure of Example 3 | metaphase II oocytes [2]; [3] | metaphase II oocytes [2]; FF-MAS 20 μM, otherwise procedure of Example 4
